Measurements taken from patent publication US20050150764A1 (priority 2001, published 2005).

What was measured:
[1] = tested on: Heliothis virescens caterpillars; experiment: Heliothis virescens test (Example A); type: in vivo; settings: 500 ppm, after 6 days, soya shoots dipped
Protocol: Heliothis virescens Test [table] To produce a suitable preparation of active compound, 1 part by weight of active compound is mixed with the stated amounts of solvent and emulsifier, and the concentrate is diluted with emulsifier-containing water to the desired concentration. Soya shoots (Glycine max) are treated by being dipped into the preparation of active compound at the desired concentration and are populated with Heliothis virescens caterpillars while the leaves are still moist. After the desired period of time, the kill in % is determined. 100% means that all of the caterpillars have been killed: 0% denotes that no caterpillars have been killed.

[2] = tested on: caterpillars of the cabbage moth (Plutella xylostella); experiment: Plutella test (Example C); type: in vivo; settings: 500 ppm, after 6 days, cabbage leaves dipped
Protocol: (§1) Plutella test [table] To produce a suitable preparation of active compound, 1 part by weight of active compound is mixed with the stated amounts of solvent and emulsifier, and the concentrate is diluted with emulsifier-containing water to the desired concentration. Cabbage leaves (Brassica oleracea) are treated by being dipped into the preparation of active compound at the desired concentration and are populated with caterpillars of the cabbage moth (Plutella xylostella) while the leaves are still moist. After the desired period of time, the kill in % is determined. 100% means that all of the caterpillars have been killed: 0% denotes that no caterpillars have been killed.

[3] = tested on: caterpillars of the army worm (Spodoptera exigua); experiment: Spodoptera exigua test (Example D); type: in vivo; settings: 500 ppm, after 6 days, cabbage leaves dipped
Protocol: as §1, with “Spodoptera exigua Test” for “Plutella test”, “army worm (Spodoptera exigua)” for “cabbage moth (Plutella xylostella)”

[4] = not given; remark: listed apart in the source
[5] = tested on: Heliothis virescens caterpillars; experiment: Activity duration test: Heliothis virescens (Example F); type: in vivo; settings: 20 ppm, cotton plants sprayed
Protocol: Activity Duration Test: Heliothis virescens [table] To produce a suitable preparation of active compound, 1 part by weight of active compound is mixed with the stated amounts of solvent and emulsifier, and the concentrate is diluted with emulsifier-containing water to the desired concentration. Cotton plants (Gossypium hirsutum) are sprayed with a preparation of the active compound in the desired concentration. After the number of days indicated, Heliothis virescens caterpillars are placed onto the treated leaves in infection chambers. After the desired period of time, the kill in % is determined. 100% means that all of the caterpillars have been killed: 0% denotes that no caterpillars have been killed.

[6] = tested on: caterpillars of the army worm (Spodoptera frugiperda); experiment: Activity duration test: Spodoptera frugiperda (Example G); type: in vivo; settings: 20 ppm, cotton plants sprayed
Protocol: Activity Duration Test: Spodoptera frugiperda [table] To produce a suitable preparation of active compound, 1 part by weight of active compound is mixed with the stated amounts of solvent and emulsifier, and the concentrate is diluted with emulsifier-containing water to the desired concentration. Cotton plants (Gossypium hirsutum) are sprayed with a preparation of the active compound in the desired concentration. After the number of days indicated, caterpillars of the army worm (Spodoptera frugiperda) are placed onto the treated leaves in infection chambers. After the desired period of time, the kill in % is determined. 100% means that all of the caterpillars have been killed: 0% denotes that no caterpillars have been killed.

Row | SMILES | kill [1] [%] | kill [2] [%] | kill [3] [%] | melting point [°C] | logP (logP (pH 2)) | logP (pH 2)/ m.p. [° C.] (logP part) [4] | kill ([5]; infection after 5 days) [%] | kill ([5]; infection after 12 days) [%] | kill ([5]; infection after 19 days) [%] | kill ([5]; infection after 26 days) [%] | Degree of kill in % ([6]; infection after 5 days) [%] | Degree of kill in % ([6]; infection after 12 days) [%] | Degree of kill in % ([6]; infection after 19 days) [%] | Degree of kill in % ([6]; infection after 26 days) [%]
1 | N#Cc1cccc(C2=NN(C(=O)Nc3ccc(OC(F)(F)F)cc3)CCC2n2cc(Cl)cn2)c1 (centres unmarked) [Example 1, 3-(3-cyanophenyl)-4-(4-chloropyrazol-1-yl)-1-(4-trifluoromethoxyphenylamino)carbonyl-1,4,5,6-tetrahydropyridazine] | 100 | 100 | 100 | 216 | 4.08 |  |  |  |  |  |  |  |  | 
2 | O=C(Nc1ccc(C(F)(F)F)cc1)N1CCC(n2cc(Cl)cn2)C(c2cccc(Br)c2)=N1 (centres unmarked) [Example 13] | 100 | 100 | 100 |  |  | 4.77/196 |  |  |  |  |  |  |  | 
3 | O=C(Nc1ccc(C(F)(F)F)cc1)N1CCC(n2cc(Cl)cn2)C(c2cccc(C(F)(F)F)c2)=N1 (centres unmarked) [Example 14] | 100 | 100 | 100 |  |  | 4.79/176 | 100 | 100 | 100 | 100 | 90 | 80 | 70 | 90
4 | O=C(Nc1ccc(SC(F)(F)F)cc1)N1CCC(n2cc(Cl)cn2)C(c2cccc(F)c2)=N1 (centres unmarked) [Example 15] | 100 | 100 | 100 |  |  | 4.81/166 |  |  |  |  | 90 | 90 | 80 | 90
5 | N#Cc1cccc(C2=NN(C(=O)Nc3ccc(SC(F)(F)F)cc3)CCC2n2cc(Cl)cn2)c1 (centres unmarked) [Example 17] | 100 | 100 | 100 |  |  | 4.44/182 |  |  |  |  |  |  |  | 
6 | N#Cc1cccc(C2=NNCCC2n2cc(Cl)cn2)c1 (centres unmarked) [II-1, 3-(3-cyanophenyl)-4-(4-chloropyrazol-1-yl)-1,4,5,6-tetrahydropyridazine] |  |  |  | 171 | 2.29 |  |  |  |  |  |  |  |  | 
